Tests used:
Assay type in all cases: functional
Spodoptera litura [1] = assay: Larvicidal activity against third-instar larvae of Spodoptera litura infested in soybean seedling assessed as mortality at 2 ppm sprayed 6 days prior to infestation measured after 5 days
Spodoptera litura [2] = assay: Larvicidal activity against third-instar larvae of Spodoptera litura infested in soybean seedling assessed as mortality at 2 ppm sprayed 1 day prior to infestation measured after 5 days
Adoxophyes orana = assay: Larvicidal activity against second-instar larvae of Adoxophyes orana infested soybean seedling assessed as mortality at 5 ppm measured after 7 days; details: 168 h
Plutella xylostella = assay: Larvicidal activity against second-instar larvae of Plutella xylostella (diamondback moth) infested raddish seedling assessed as mortality at 3.3 ppm sprayed 2 hr prior to infestation measured after 4 days

Structure (SMILES)	mortality at 2 ppm (Spodoptera litura [1]) [%]	mortality at 2 ppm (Spodoptera litura [2]) [%]	mortality at 5 ppm (Adoxophyes orana) [%]	mortality at 3.3 ppm (Plutella xylostella) [%]
Cc1c(NC(=O)NC(=O)c2c(F)cccc2F)ccc(SC(F)(F)C(F)F)c1C	100	100	100	100
Cc1cc(S(=O)(=O)C(F)(F)C(F)F)c(C)cc1NC(=O)NC(=O)c1c(F)cccc1F	100	100	95	100
O=C(NC(=O)c1c(F)cccc1F)Nc1ccc(SC(F)(F)C(F)F)c(Cl)c1Cl	100	100	100	100
O=C(NC(=O)c1c(F)cccc1F)Nc1ccc([S+]([O-])C(F)(F)C(F)F)c(Cl)c1Cl (stereo not given)	100	100	85	100
O=C(NC(=O)c1c(F)cccc1F)Nc1ccc(S(=O)(=O)C(F)(F)C(F)F)c(Cl)c1Cl	100	100	100	95
Cc1c(NC(=O)NC(=O)c2c(F)cccc2F)ccc([S+]([O-])C(F)(F)C(F)F)c1C (stereo not given)	100	100	90	100
Cc1c(NC(=O)NC(=O)c2c(F)cccc2F)ccc(S(=O)(=O)C(F)(F)C(F)F)c1C	100	100	100	100
O=C(NC(=O)c1c(F)cccc1F)Nc1ccc(SC(F)(F)C(F)Cl)cc1 (stereo not given)	45	65	40	100
O=C(NC(=O)c1c(F)cccc1F)Nc1ccc(S(=O)(=O)C(F)(F)C(F)Cl)cc1 (stereo not given)	0	0	–	–
O=C(NC(=O)c1c(F)cccc1F)Nc1ccc(SC(F)(F)C(F)Cl)cc1F (stereo not given)	100	100	100	100
O=C(NC(=O)c1c(F)cccc1F)Nc1ccc([S+]([O-])C(F)(F)C(F)Cl)cc1F (stereo not given)	100	100	100	100
O=C(NC(=O)c1c(F)cccc1F)Nc1ccc(S(=O)(=O)C(F)(F)C(F)Cl)cc1F (stereo not given)	100	100	100	100
O=C(NC(=O)c1c(F)cccc1F)Nc1ccc(SC(F)(F)C(F)Cl)cc1Cl (stereo not given)	100	100	100	100
O=C(NC(=O)c1c(F)cccc1F)Nc1ccc([S+]([O-])C(F)(F)C(F)Cl)cc1Cl (stereo not given)	90	100	95	95
O=C(NC(=O)c1c(F)cccc1F)Nc1ccc(S(=O)(=O)C(F)(F)C(F)Cl)cc1Cl (stereo not given)	100	100	100	95
O=C(NC(=O)c1c(F)cccc1F)Nc1ccc(SC(F)(F)C(F)Cl)cc1Br (stereo not given)	100	100	100	95
O=C(NC(=O)c1c(F)cccc1F)Nc1ccc(S(=O)(=O)C(F)(F)C(F)Br)cc1Br (stereo not given)	95	100	85	20
Cc1cc(SC(F)(F)C(F)Cl)ccc1NC(=O)NC(=O)c1c(F)cccc1F (stereo not given)	100	100	95	100

Source: ChEMBL document CHEMBL3045262, “Synthesis and Insecticidal Activity of Novel 1-Benzoyl-3-phenylurea Derivatives with Polyfluoroethylsulfenyl, -sulfonyl, and-sulfinyl Substituents” (1992)
